From article PMC3172300, “Modulation of Catalytic Activity in Multi-Domain Protein Tyrosine Phosphatases” (PLoS ONE, 2011) come the findings set out here.

For orientation: Vmax means the top rate of the reaction or transport when substrate is in excess. The Km is the substrate concentration at which the rate is half of its maximum.

In one test the target is T1, DLAR D1D2 (Drosophila melanogaster, UniProt P16621).
T1 construct: DLAR 1448-2029; His tag (pET-15b or pET-22b); made in house; host or cells: E. coli BL21(DE3)
T1 sequence (P16621 1448-2029): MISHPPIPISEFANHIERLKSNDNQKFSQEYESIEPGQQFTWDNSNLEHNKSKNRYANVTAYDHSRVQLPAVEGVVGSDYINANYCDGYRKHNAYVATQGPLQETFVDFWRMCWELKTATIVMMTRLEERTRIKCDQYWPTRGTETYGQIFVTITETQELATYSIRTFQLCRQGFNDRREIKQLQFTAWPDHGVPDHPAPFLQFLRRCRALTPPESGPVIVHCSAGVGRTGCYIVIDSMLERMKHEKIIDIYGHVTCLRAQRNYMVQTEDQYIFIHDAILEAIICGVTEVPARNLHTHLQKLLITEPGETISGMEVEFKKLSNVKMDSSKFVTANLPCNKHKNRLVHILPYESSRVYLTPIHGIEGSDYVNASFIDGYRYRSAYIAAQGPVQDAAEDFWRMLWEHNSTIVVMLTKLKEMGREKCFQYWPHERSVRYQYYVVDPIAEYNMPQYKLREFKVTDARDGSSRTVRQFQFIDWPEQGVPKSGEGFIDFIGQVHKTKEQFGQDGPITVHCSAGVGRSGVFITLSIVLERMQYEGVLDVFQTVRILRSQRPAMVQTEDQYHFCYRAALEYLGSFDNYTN
The test can be described thus: Dephosphorylation of phosphotyrosine peptides (malachite green), DLAR D1D2. The settings on record: for Vmax / Kcat / Kcat/Km / Km: 0.01 µM protein; for Vmax: 25 mM citrate buffer pH 6.0, 100 mM NaCl, 2 mM DTT, 15 min at 25°C, Biomol Green, 650 nm, Michaelis-Menten fit; for Kcat / Kcat/Km / Km: 25 mM citrate pH 6.0, 15 min at 25°C, malachite green; for substrate preference: order of peptide substrates, DLAR D1D2. In kind it is biochemical. From the text:
(§1) Substrates of PTPs characterized thus far include the activation loop segments of various kinases and regulatory loops of other signaling proteins. Suitably designed peptide substrates mimic the physiologically relevant substrates of PTPs. In the present study, peptide substrates were designed for DLAR for which more information was available on its interacting partners. […] The five peptides were chosen based on their distinct charge distributions around the central phosphotyrosine residue. The phosphorylated as well as non-phosphorylated peptides were obtained from GL Bioscience, China. The peptides were >95% pure and were used after a single round of desalting using a Sephadex G25 column (GE Healthcare). The concentration of the peptide samples for biochemical studies was ascertained by UV absorption at 268 nm for the pY residue.
(§2) Phosphatase activity of the recombinant PTP domains was determined by using para-Nitrophenylphosphate (pNPP), a small molecule generic substrate, as well as phosphotyrosine containing peptides. The pNPP assay was performed as reported previously, with a modification in the buffer composition (25 mM Citrate, Glycine and HEPES (CGH), pH 6.5, 100 mM NaCl and 2 mM DTT). Phosphatase activity with the phosphotyrosine peptides was ascertained by the malachite green reaction as described for PTPs previously. Briefly, the reaction mixture comprised of 0.01 µM protein incubated with increasing concentrations of different peptides in 25 mM citrate buffer pH 6.0, 100 mM NaCl and 2 mM DTT for 15 min at 25°C. The reaction was stopped by the addition of the Biomol Green reagent (Enzo Life Sciences) and the colour developed after 20 min was quantified at 650 nm. For all the assays, kinetic constants for the steady state catalysis were obtained by fitting the reaction curves to the Michaelis-Menten equation using the nonlinear regression module of Sigma plot software (Systat Software, Inc.).

The next test has as its target T2, PTP99A D1D2 (Drosophila melanogaster, UniProt P35832).
T2 sequence (P35832 450-1050): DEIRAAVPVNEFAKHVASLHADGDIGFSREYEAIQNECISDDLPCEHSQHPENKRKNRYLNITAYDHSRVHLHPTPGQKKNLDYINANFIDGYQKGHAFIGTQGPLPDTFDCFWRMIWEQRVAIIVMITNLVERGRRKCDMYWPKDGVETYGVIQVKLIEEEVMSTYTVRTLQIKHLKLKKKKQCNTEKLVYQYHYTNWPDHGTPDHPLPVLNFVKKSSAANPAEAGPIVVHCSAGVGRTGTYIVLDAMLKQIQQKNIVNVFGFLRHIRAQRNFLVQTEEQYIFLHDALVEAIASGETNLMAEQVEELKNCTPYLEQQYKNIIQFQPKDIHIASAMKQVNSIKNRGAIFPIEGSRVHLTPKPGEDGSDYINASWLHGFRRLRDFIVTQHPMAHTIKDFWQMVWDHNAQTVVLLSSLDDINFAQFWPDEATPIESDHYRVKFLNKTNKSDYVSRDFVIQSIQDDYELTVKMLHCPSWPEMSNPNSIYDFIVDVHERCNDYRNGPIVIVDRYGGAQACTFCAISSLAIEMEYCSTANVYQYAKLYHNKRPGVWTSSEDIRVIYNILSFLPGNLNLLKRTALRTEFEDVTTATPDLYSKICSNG
Kind of test: Dephosphorylation of phosphotyrosine peptides (malachite green), PTP99A D1D2. Conditions: for Vmax / Kcat / Kcat/Km / Km: 0.01 µM protein; for Vmax: 25 mM citrate buffer pH 6.0, 100 mM NaCl, 2 mM DTT, 15 min at 25°C, Biomol Green, 650 nm, Michaelis-Menten fit; for Kcat / Kcat/Km / Km: 25 mM citrate pH 6.0, 15 min at 25°C, malachite green; for substrate preference: order of peptide substrates, PTP99A D1D2.
From the text: as §1, §2

The target of the next test is T3, PTP99A D2 (Drosophila melanogaster, UniProt P35832).
T3 sequence (P35832 740-1050): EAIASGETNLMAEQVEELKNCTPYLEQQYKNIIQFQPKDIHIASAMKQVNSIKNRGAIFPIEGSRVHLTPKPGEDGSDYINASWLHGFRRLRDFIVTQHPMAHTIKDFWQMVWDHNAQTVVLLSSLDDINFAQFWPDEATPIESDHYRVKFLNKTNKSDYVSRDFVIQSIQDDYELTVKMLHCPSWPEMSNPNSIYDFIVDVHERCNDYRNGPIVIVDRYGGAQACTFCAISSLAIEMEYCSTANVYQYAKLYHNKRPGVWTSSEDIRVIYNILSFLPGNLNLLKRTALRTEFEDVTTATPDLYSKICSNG
The test can be described thus: Peptide preference of the PTP99A D2 domain from ratios of kcat/Km (D1D2 vs D1). In kind it is biochemical. The settings on record: order of peptide substrates, from comparison of kcat/Km of D1D2 with D1. On the procedure:
as §2
The difference between the most and least preferred substrate in the case of DLAR D1D2 was much less (∼16.0×10^4 sec^−1 M^−1 between Cuticle and Myospheroid peptides) when compared to DLAR D1 alone (∼130.0×10^4 sec^−1 M^−1 between Insulin Receptor and Abelson peptides). […] A more comprehensive study of this activation mechanism is being reported elsewhere.

Read-outs that look alike come from different tables or passages of the source. Square brackets hold non-standard residues; d marks the D form. Ends that are not written are not given here. Peptide text beside a SMILES is read from it. pY = N[C@@H](Cc1ccc(OP(=O)(O)O)cc1)C(=O)O

“CDDS[pY]FGNKC (cysteine pairing not given here) [Myospheroid peptide, phosphotyrosine peptide CDDSpYFGNKC from PeptideMine server, obtained from GL Bioscience, >95% pure]”: on DLAR D1D2, the Vmax came to 13.86 ± 0.39 µmol/min/mg, the Kcat stood at 16.53 ± 0.47 s⁻¹, the Kcat/Km is 14.28 ± 0.05 x 10^4 sec^-1M^-1 and the substrate preference result is “Cuticle peptide>Insulin receptor peptide>Nervous fingers peptide>Abelson peptide>Myospheroid peptide”. Also, the Km on DLAR D1D2 (read-out: Km) is 116 ± 8.69 µM. Also, on PTP99A D1D2, the Vmax was 1.09 ± 0.03 µmol/min/mg, the Kcat was 1.35 ± 0.03 s⁻¹, the Kcat/Km was 44.1 ± 1.22 x 10^4 sec^-1M^-1 and the Km was 3.06 ± 0.36 µM. Moreover, the substrate preference result at PTP99A D1D2 was “Insulin Receptor peptide>Cuticle peptide>Myospheroid>Abelson peptide>Nervous fingers peptide”. Besides, on PTP99A D2, the peptide preference entry is on record as “Nervous fingers peptide>Abelson peptide>Cuticle peptide>Myospheroid peptide>Insulin receptor peptide”.

Turning to “VIGD[pY]VCRLCK (cysteine pairing not given here) [Nervous Fingers peptide, phosphotyrosine peptide VIGDpYVCRLCK from PeptideMine server, obtained from GL Bioscience, >95% pure]”, at DLAR D1D2, the Vmax was determined as 12.41 ± 0.68 µmol/min/mg, the Kcat amounted to 14.79 ± 0.81 s⁻¹, the Kcat/Km was 19.59 ± 0.11 x 10^4 sec^-1M^-1 and the substrate preference result is listed as “Cuticle peptide>Insulin receptor peptide>Nervous fingers peptide>Abelson peptide>Myospheroid peptide”. The Km on DLAR D1D2 (read-out: Km) came out at 75.5 ± 12.5 µM. For the same compound, at PTP99A D1D2, the Vmax came to 8.89 ± 0.38 µmol/min/mg, the Kcat amounted to 11.01 ± 0.46 s⁻¹, the Kcat/Km is given as 6.12 ± 0.12 x 10^4 sec^-1M^-1 and the Km was 180 ± 15 µM. For the same compound, the substrate preference result on PTP99A D1D2 is on record as “Insulin Receptor peptide>Cuticle peptide>Myospheroid>Abelson peptide>Nervous fingers peptide”. Further, the peptide preference entry at PTP99A D2 is on record as “Nervous fingers peptide>Abelson peptide>Cuticle peptide>Myospheroid peptide>Insulin receptor peptide”.

In the case of “RDDT[pY]TAHAG [Abelson peptide, phosphotyrosine peptide RDDTpYTAHAG from PeptideMine server, obtained from GL Bioscience, >95% pure]”, on DLAR D1D2, the Vmax was 3.39 ± 0.19 µmol/min/mg, the Kcat was determined as 4.05 ± 0.22 s⁻¹, the Kcat/Km was 17.96 ± 0.16 x 10^4 sec^-1M^-1 and the substrate preference result is “Cuticle peptide>Insulin receptor peptide>Nervous fingers peptide>Abelson peptide>Myospheroid peptide”. Also, on DLAR D1D2 (read-out: Km), the Michaelis-Menten constant (Km) worked out at 22.6 ± 4.88 µM. Further, at PTP99A D1D2, the Vmax came to 2.59 ± 0.07 µmol/min/mg, the Kcat amounted to 3.21 ± 0.08 s⁻¹, the Kcat/Km was 19.97 ± 0.15 x 10^4 sec^-1M^-1 and the Km was found to be 16.3 ± 1.55 µM. Further, the substrate preference result on PTP99A D1D2 was “Insulin Receptor peptide>Cuticle peptide>Myospheroid>Abelson peptide>Nervous fingers peptide”. Also, at PTP99A D2, the peptide preference entry was “Nervous fingers peptide>Abelson peptide>Cuticle peptide>Myospheroid peptide>Insulin receptor peptide”.

Turning to `CC(C)C[C@H](NC(=O)[C@H](C)NC(=O)CNC(=O)[C@H](Cc1ccc(OP(=O)(O)O)cc1)NC(=O)[C@H](CC(=O)O)NC(=O)[C@@H]1CCCN1C(=O)[C@H](CCC(=O)O)NC(=O)[C@H](C)NC(=O)[C@@H](N)[C@@H](C)O)C(=O)N[C@@H](Cc1ccc(O)cc1)C(=O)N[C@@H](CCC(=O)O)C(=O)O` [Cuticle peptide] (H-TAEPD[pY]GALYE-OH), the Michaelis-Menten constant (Km) at DLAR D1D2 turned out to be 105 ± 12.4 µM.
